How the values were obtained:
[1] = tested on: microdissected human scalp hair follicles (HF); assay: Hair follicle organ culture model, non-inflammatory condition (ex vivo); format: cell-based
Protocol: A hair follicle organ culture model was used to analyze the direct effects of Compound 1 on HF physiology in a non-inflammatory condition. Human full thickness scalp skin from four healthy donors was cultured ex vivo and treated in four groups with 11 HF's per groups: 1. vehicle (DMSO control), 2. 10 nM Compound 1, 3. 100 nM Compound 1, 4. 1 μM Compound 1. Before treatment began, […] full length microdissected HF's were isolated, pictures and length measurements were taken of the HF's, and the HF's were cultured in WCM. On Days 1, 3, and 5 pictures of HF elongation were taken, the medium was changed, and treatment in groups 1-4 occurred. Days 2 and 4 were rest days. Additionally, on Day 2 three HF's per group were frozen for RNAseq twenty-four hours after the previous day's treatment. On Day 6, pictures were taken of the HF elongation, the culture was closed, and 8 HF's per group were embedded in optimal cutting temperature compound (OCT compound) for further microscopic immunohistological analysis.

[2] = tested on: human full thickness scalp skin / hair follicles; assay: Human full thickness scalp skin model, AA-like inflammatory environment, with and without IFNγ (ex vivo); format: cell-based
Protocol: To evaluate the effects of Compound 1 on hair follicle physiology and pathology in an AA-like inflammatory environment, a human full thickness scalp skin model was used. Scalp biopsies from two healthy donors were cultured ex vivo and treated with tofacitinib (400 nM) and Compound 1 (10 nM, 100 nM, 1000 nM) in the presence and absence of IFNγ, a key pathological cytokine involved in AA development. 5 mm skin cubes with hair were acquired from a donor (Donor 1) and a donor (Donor 2). Ten groups were tested with one skin punch per group: 1. Vehicle (DMSO control) 2. Tofacitinib (400 nM), 3. 10 nM Compound 1, 4. 100 nM Compound 1 5. 1 μM Compound 1, 6. Vehicle (DMSO control)+100 IU IFNγ, 7. Tofacitinib (400 nM)+100 IU IFNγ, 8. 10 nM Compound 1+100 IU IFNγ, 9. 100 nM Compound 1+100 IU IFNγ 10. 1 μM Compound 1+100 IU IFNγ. On Day 0, isolation of 10×6mm punches with hair was performed. On Days 1, 3, and 5 the medium was changed and treatment with groups 1-10 occurred. Days 2 and 4 were rest days. On Day 6, the culture was closed and embedded in OCT Compound for further microscopic analysis.

[3] = Safety and tolerability in clinical studies (Phase 1, healthy adult subjects); format: in vivo, human; conditions: approximately 281 adult subjects, various doses; single doses up to 5 mg, repeated doses up to 4 mg QD
Protocol: (§1) Compound 1, or a pharmaceutically acceptable salt, solvate, or hydrate thereof, is an orally administered, selective, synthetic sphingosine 1-phosphate (S1P) receptor 1, 4, 5 modulator. […] Its safety and tolerability have been evaluated in Phase 1 studies with healthy adult subjects at single doses up to 5 mg and repeated doses up to 4 mg once daily (QD).

[4] = Phase 2 dose-ranging study in UC patients and open-label extension; format: in vivo, human; conditions: UC patients
Protocol: as §1

SMILES: O=C(O)C[C@H]1CCc2c1[nH]c1ccc(OCc3ccc(C4CCCC4)c(C(F)(F)F)c3)cc21 [Compound 1, (R)-2-(7-(4-cyclopentyl-3-(trifluoromethyl)benzyloxy)-1,2,3,4-tetrahydrocyclopenta[b]indol-3-yl)acetic acid]
- Hair cycle staging / hair cycle score (anagen phase) ([1]; 10 nM and 100 nM, 6-day HF organ culture, vs vehicle (FIG. 7)): tendentially prolonged the anagen phase
- MICA expression (stress signal) ([1]; 100 nM, anagen and catagen HFs combined and anagen HFs alone (FIG. 9)): significantly reduced
- RNAseq: genes involved in hair keratinization ([1]; 10 nm and 100 nm groups, HFs frozen 24 h after treatment): significant up-regulation
- MHC class I (MHC-I) expression in dermal cup, germinative hair matrix, outer root sheath ([1]; anagen and catagen HFs combined and anagen HFs alone (FIGS. 8a, 8b)): no change
- IFNγ-mediated MHC-I up-regulation in the dermal cup of the hair follicle ([2]; +100 IU IFNγ (FIG. 11)): prevented
- Hair cycle staging / hair cycle score (anagen) ([2]; Donor 1, without IFNγ (FIG. 10)): tendentially prolonged anagen
- Increase of CD8-S1P1+ cells showing lymphocytic morphology ([2]; Donor 2 (FIG. 12)): prevented
- Increase of perifollicular CD8+ cells showing lymphocytic morphology ([2]; Donor 2 (FIG. 12)): prevented
- Safety and tolerability [3]: safe and well-tolerated
- Endoscopic and symptomatic improvements versus placebo ([4]; 2 mg QD for 12 weeks): clinically meaningful and statistically significant
- Duration of beneficial effects in open-label extension study ([4]; up to 46 weeks): Sustained beneficial effects
